Assay [1] has as its system Tyrosine-protein kinase ABL1 (Homo sapiens), P00519 [H396P]. Conditions: Compound concentration 1000.0 nM.
Assay [2] addresses Proto-oncogene tyrosine-protein kinase Src (Homo sapiens) (UniProt P12931). Conditions: Compound concentration 1000.0 nM.
Assay [3] deals with Dual serine/threonine and tyrosine protein kinase (Homo sapiens) (UniProt Q6XUX3). To be noted: Compound concentration 1000.0 nM.
In assay [4] the target is Beta-3 adrenergic receptor (Homo sapiens) (UniProt P13945). Conditions: Compound concentration 10.0 uM.
For assay [5], the target named is Cyclin-dependent kinase-like 2 (Homo sapiens) (UniProt Q92772). To be noted: Compound concentration 1000.0 nM.
Assay [6] addresses T1, MAP/microtubule affinity-regulating kinase 4 (Homo sapiens) (UniProt Q96L34).
T1 sequence (whole entry): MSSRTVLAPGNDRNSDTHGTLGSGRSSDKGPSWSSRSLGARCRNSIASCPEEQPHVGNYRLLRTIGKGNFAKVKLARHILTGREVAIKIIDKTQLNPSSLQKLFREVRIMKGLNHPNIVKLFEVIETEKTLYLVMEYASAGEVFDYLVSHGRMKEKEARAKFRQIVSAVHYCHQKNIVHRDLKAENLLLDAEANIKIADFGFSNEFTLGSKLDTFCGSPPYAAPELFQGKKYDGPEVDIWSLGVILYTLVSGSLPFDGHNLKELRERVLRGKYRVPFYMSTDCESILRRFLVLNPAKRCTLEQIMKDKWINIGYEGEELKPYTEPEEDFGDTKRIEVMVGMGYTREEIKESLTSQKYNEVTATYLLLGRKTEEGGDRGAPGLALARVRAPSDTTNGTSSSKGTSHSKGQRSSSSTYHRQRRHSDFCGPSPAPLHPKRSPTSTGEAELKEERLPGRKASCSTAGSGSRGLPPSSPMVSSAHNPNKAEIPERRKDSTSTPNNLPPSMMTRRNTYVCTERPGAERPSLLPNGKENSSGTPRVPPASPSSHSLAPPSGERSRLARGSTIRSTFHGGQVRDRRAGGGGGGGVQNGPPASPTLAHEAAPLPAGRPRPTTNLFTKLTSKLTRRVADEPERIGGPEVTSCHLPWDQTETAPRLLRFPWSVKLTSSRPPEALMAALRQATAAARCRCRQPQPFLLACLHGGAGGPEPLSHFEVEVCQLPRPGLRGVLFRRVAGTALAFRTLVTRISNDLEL
Conditions: Compound concentration 1000.0 nM.

Assay [7] addresses T2, Serine/threonine-protein kinase Sgk1 (Homo sapiens) (UniProt O00141).
T2 sequence (whole entry): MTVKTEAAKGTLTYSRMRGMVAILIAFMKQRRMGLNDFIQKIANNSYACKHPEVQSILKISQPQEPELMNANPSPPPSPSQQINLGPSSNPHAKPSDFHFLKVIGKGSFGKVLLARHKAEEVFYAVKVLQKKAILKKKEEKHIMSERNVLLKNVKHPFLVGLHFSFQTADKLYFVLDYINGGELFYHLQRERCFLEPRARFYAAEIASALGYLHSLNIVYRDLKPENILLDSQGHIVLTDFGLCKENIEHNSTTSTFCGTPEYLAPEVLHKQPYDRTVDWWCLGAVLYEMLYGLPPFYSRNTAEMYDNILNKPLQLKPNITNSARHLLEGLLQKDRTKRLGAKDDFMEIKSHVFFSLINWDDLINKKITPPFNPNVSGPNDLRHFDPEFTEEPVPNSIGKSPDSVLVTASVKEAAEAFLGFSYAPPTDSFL
Conditions: Compound concentration 1000.0 nM.

The subject of assay [8] is Receptor-type tyrosine-protein kinase FLT3 (Homo sapiens), P36888 [D835V]. Conditions: Compound concentration 1000.0 nM.
Assay [9] has as its target Insulin-like growth factor 1 receptor (Homo sapiens) (UniProt P08069). Conditions: Compound concentration 1000.0 nM.
For assay [10], the target named is T3, Cytoplasmic tyrosine-protein kinase BMX (Homo sapiens) (UniProt P51813).
T3 sequence (whole entry): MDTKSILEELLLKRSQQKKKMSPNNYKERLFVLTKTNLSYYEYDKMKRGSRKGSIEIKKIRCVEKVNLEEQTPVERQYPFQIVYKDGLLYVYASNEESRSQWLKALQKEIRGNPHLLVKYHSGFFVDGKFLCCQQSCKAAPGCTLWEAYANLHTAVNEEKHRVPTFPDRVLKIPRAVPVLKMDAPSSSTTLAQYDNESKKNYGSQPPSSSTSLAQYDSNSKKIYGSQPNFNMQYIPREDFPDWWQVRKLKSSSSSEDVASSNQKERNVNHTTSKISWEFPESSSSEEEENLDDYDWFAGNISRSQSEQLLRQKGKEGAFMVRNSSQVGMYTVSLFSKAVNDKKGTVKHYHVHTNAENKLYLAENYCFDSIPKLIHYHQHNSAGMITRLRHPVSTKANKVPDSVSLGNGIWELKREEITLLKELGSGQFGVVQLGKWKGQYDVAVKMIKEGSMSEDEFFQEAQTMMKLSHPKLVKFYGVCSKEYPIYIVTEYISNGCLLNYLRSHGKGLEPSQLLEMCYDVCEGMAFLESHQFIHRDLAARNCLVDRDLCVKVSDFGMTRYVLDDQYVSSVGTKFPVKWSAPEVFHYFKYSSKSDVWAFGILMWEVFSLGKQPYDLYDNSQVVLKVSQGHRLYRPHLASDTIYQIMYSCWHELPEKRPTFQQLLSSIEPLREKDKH
Conditions: Compound concentration 1000.0 nM.

Assay [11] concerns the target Ribosomal protein S6 kinase alpha-2 (Homo sapiens) (UniProt Q15349). To be noted: Compound concentration 1000.0 nM.
Assay [12] has as its target Cyclin-dependent kinase 16 (Homo sapiens) (UniProt Q00536). To be noted: Compound concentration 1000.0 nM.

Each structure is given as a SMILES string.

Usually residual activity stands for the signal under treatment as a percentage of the control signal. Broadly, the inhibition is the relative decrease from the control value, in per cent.

Chain of Dual serine/threonine and tyrosine protein kinase (Homo sapiens) (Q6XUX3 whole entry): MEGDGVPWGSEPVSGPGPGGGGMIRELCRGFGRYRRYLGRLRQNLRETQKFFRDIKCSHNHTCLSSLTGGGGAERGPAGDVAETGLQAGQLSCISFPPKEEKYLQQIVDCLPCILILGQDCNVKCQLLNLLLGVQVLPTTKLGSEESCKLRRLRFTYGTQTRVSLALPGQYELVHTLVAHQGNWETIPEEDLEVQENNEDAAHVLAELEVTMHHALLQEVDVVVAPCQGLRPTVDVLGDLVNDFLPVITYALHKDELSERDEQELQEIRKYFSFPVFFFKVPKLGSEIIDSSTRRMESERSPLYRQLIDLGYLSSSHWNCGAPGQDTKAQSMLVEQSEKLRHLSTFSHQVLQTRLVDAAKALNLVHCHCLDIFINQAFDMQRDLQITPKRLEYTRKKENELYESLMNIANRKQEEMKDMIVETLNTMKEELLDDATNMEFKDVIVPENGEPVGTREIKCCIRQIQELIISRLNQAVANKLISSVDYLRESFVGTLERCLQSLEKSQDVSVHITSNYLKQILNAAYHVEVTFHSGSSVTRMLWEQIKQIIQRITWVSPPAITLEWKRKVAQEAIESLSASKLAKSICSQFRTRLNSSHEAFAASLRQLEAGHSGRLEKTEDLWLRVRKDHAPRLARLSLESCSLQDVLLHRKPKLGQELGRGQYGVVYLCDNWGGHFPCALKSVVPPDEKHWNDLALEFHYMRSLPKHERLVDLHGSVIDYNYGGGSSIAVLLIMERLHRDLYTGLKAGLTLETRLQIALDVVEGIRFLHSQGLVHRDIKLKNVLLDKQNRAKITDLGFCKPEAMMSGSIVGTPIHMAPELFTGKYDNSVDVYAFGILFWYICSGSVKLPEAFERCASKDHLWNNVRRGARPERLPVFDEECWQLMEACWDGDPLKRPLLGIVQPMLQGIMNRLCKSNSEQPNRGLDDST
Chain of Ribosomal protein S6 kinase alpha-2 (Homo sapiens) (Q15349 whole entry): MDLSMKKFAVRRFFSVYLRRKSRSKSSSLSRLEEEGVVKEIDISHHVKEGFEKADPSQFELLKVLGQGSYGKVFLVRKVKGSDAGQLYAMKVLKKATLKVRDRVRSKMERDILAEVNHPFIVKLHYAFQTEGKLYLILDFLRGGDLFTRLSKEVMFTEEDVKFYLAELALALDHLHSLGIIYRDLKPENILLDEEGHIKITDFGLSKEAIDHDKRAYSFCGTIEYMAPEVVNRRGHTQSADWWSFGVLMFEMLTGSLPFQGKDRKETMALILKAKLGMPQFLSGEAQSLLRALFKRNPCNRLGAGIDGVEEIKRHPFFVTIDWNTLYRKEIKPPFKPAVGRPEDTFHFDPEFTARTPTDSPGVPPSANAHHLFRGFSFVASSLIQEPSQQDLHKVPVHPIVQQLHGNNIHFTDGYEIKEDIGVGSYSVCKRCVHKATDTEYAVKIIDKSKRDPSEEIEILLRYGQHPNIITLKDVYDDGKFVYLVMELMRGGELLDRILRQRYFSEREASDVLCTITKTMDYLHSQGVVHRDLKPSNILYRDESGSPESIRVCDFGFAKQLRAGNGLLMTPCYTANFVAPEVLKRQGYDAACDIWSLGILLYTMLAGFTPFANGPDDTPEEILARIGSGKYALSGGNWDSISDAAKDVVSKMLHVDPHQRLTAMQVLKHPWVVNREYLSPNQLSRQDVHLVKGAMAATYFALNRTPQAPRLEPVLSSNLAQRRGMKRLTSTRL
Chain of Insulin-like growth factor 1 receptor (Homo sapiens) (P08069 31-736 limits assumed): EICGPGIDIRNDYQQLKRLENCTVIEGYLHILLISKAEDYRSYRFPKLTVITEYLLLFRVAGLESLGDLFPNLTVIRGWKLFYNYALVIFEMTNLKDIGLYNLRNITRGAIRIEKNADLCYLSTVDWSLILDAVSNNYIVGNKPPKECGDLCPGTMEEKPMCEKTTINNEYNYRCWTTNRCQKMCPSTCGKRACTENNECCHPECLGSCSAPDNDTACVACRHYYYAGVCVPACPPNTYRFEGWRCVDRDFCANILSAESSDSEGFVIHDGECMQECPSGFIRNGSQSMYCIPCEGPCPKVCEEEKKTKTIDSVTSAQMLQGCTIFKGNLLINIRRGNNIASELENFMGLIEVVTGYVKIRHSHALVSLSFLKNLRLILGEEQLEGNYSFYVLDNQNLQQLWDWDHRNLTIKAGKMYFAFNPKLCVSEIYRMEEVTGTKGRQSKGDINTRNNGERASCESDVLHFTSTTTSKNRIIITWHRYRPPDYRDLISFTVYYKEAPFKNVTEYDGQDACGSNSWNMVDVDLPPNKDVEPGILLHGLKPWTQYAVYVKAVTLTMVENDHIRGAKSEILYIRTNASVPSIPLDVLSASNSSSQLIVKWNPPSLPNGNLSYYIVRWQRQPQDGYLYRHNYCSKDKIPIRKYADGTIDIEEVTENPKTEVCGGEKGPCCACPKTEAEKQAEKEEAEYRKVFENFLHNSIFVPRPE
Chain of Insulin-like growth factor 1 receptor (Homo sapiens) (P08069 741-1367 limits assumed): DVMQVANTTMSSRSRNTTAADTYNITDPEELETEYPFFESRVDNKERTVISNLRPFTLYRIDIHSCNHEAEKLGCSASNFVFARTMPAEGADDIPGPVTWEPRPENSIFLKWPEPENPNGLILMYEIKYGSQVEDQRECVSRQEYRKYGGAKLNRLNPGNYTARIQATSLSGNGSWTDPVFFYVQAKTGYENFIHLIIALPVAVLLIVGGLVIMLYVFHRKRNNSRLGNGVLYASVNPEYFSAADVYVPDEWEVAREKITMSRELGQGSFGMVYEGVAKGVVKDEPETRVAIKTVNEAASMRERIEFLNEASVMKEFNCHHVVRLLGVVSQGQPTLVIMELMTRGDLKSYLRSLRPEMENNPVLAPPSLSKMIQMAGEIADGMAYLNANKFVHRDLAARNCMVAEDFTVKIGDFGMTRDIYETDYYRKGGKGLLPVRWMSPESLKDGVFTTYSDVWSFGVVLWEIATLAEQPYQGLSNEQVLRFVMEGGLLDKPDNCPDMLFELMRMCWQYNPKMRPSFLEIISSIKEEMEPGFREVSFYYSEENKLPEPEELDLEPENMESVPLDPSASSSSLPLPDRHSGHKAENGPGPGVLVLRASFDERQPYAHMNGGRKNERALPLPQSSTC
Chain of Proto-oncogene tyrosine-protein kinase Src (Homo sapiens) (P12931 2-536 limits assumed): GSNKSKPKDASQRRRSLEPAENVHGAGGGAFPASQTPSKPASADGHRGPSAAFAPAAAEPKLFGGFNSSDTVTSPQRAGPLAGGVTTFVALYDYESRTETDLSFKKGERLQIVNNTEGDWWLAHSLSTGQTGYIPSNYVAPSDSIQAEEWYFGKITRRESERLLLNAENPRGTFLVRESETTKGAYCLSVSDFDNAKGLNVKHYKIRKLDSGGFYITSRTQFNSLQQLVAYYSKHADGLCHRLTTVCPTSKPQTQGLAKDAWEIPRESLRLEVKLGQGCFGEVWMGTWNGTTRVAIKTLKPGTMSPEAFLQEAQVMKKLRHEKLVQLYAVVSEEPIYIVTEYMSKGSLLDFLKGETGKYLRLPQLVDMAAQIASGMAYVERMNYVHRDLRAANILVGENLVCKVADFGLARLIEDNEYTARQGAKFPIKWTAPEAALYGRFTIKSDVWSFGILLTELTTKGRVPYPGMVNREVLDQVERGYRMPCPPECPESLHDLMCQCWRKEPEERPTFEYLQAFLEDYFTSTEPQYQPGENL
Chain of Beta-3 adrenergic receptor (Homo sapiens) (P13945 whole entry, looked up): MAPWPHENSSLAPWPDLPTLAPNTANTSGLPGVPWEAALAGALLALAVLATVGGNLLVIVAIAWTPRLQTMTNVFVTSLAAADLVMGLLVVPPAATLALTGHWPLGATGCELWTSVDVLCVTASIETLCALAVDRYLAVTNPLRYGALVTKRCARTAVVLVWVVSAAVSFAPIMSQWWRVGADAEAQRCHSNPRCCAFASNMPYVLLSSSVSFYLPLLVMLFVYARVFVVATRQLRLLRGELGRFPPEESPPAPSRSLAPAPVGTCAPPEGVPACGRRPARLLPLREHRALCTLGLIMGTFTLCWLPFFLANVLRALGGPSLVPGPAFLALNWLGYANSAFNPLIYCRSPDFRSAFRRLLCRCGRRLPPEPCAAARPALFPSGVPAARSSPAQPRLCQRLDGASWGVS
Chain of Cyclin-dependent kinase-like 2 (Homo sapiens) (Q92772 whole entry): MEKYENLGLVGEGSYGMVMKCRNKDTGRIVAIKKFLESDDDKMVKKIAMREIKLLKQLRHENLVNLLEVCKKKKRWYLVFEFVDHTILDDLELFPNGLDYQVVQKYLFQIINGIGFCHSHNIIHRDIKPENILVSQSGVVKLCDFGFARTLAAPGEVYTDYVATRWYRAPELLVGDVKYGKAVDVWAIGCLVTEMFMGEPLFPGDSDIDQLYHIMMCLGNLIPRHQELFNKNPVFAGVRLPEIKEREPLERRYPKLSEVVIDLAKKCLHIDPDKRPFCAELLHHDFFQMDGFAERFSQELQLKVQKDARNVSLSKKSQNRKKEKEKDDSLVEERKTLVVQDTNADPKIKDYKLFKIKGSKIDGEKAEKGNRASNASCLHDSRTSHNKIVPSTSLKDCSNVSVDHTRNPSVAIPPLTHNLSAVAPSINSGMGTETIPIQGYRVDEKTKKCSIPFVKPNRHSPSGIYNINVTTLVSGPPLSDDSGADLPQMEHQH
Chain of Cyclin-dependent kinase 16 (Homo sapiens) (Q00536 whole entry): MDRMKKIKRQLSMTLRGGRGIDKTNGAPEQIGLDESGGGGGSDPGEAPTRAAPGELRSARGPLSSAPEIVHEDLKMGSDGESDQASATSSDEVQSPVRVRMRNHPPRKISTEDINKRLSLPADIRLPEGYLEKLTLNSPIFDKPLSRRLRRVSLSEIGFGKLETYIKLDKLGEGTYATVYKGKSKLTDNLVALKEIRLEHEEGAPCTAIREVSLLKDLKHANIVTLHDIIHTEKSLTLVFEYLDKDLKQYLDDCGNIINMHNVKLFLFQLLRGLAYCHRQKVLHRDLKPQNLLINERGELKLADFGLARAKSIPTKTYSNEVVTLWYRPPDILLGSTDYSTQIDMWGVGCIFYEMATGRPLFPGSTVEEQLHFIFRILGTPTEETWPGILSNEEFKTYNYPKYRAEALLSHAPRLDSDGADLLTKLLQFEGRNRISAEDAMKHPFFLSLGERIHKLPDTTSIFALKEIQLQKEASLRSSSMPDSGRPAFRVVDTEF

Take `CN(C)C(=O)Cn1cc(-c2nc(C3(c4ccc(-c5cnc(N)nc5)cc4)CC3)no2)cn1` [BI 0153]: the residual activity in assay [1] was 100%; in assay [2], 84%; in assay [3], 94%; in [5], 100%; in assay [6], 96%; in assay [7] it was 96%. For the same compound, the residual activity was 49% in assay [8]; 85% in assay [9]; 88% in assay [10]; 100% in [11]; 80% in assay [12]. For the same compound, the inhibition in assay [4] was 3.06%.
In the case of `CN(C)C(=O)Cn1cc(-c2nc([C@@](C)(c3ccc(-c4cnc(N)nc4)cc3)C3CC3)no2)cn1` [BI 665915], the residual activity in assay [1] is 76%; in assay [2], 90%; in assay [3], 57%; in assay [5] it was 100%; in [6], 95%; in [7], 91%. The residual activity in assay [8] is 72%; in assay [9] it was 100%; in [10], 93%; in assay [11], 85%; in assay [12], 86%. In addition, the inhibition in assay [4] was 9.54%.

These data come from ChEMBL document CHEMBL4507276 (2021).
